Results taken from patent US8835432B2, “Heterocyclic compounds and their uses” (Amgen Inc., priority 2012, dated 2014).

How the values were obtained:
[1] = target: T1, PI3K d (Homo sapiens, UniProt O00329); experiment: In vitro enzyme assay, PI3K delta; format: biochemical
T1 construct: Full length p110 subunits of PI3k α, β and δ, N-terminally labeled with polyHis tag; polyHis (N); made in house; host or cells: Sf9 insect cells (baculovirus)
Method: (§1) Full length p110 subunits of PI3k α, β and δ, N-terminally labeled with polyHis tag, were coexpressed with p85 with Baculo virus expression vectors in sf9 insect cells. P110/p85 heterodimers were purified by sequential Ni-NTA, Q-HP, Superdex-100 chromatography. Purified α, β and δ isozymes were stored at −20° C. in 20 mM Tris, pH 8, 0.2M NaCl, 50% glycerol, 5 mM DTT, 2 mM Na cholate. Truncated PI3Kγ, residues 114-1102, N-terminally labeled with polyHis tag, was expressed with Baculo virus in Hi5 insect cells. The γ isozyme was purified by sequential Ni-NTA, Superdex-200, Q-HP chromatography. The γ isozyme was stored frozen at −80° C. in NaH2PO4, pH 8, 0.2M NaCl, 1% ethylene glycol, 2 mM β-mercaptoethanol.
(§2) Assays were performed in 25 μL with the above final concentrations of components in white polyproplyene plates (Costar 3355). Phospatidyl inositol phosphoacceptor, PtdIns(4,5)P2 P4508, was from Echelon Biosciences. The ATPase activity of the alpha and gamma isozymes was not greatly stimulated by PtdIns(4,5)P2 under these conditions and was therefore omitted from the assay of these isozymes. Test compounds were dissolved in dimethyl sulfoxide and diluted with three-fold serial dilutions. The compound in DMSO (1 μL) was added per test well, and the inhibition relative to reactions containing no compound, with and without enzyme was determined After assay incubation at rt, the reaction was stopped and residual ATP determined by addition of an equal volume of a commercial ATP bioluminescence kit (Perkin Elmer EasyLite) according to the manufacturer's instructions, and detected using a AnalystGT luminometer.

[2] = system: PI3K b; experiment: In vitro enzyme assay, PI3K beta; format: biochemical; details: ratio of beta to delta IC50
Method: as §1, §2

[3] = target: T2, PI3Ka (Homo sapiens, UniProt P42336); experiment: In vitro enzyme assay, PI3K alpha; format: biochemical
T2 construct: Full length p110 subunits of PI3k α, β and δ, N-terminally labeled with polyHis tag; polyHis (N); made in house; host or cells: Sf9 insect cells (baculovirus)
Method: as §1, §2

[4] = target: T3, PI3Kg (Homo sapiens, UniProt P48736); experiment: In vitro enzyme assay, PI3K gamma; format: biochemical
T3 construct: Truncated PI3Kγ, residues 114-1102, N-terminally labeled with polyHis tag; polyHis (N); made in house; host or cells: Hi5 insect cells (baculovirus)
Method: as §1, §2

[5] = system: Human B cells; experiment: Human B cells proliferation stimulated by anti-IgM; format: cell-based; details: Hu B Cell anti-IgM, note under the cell, read-out: on target anti-IgM (Hu B Cell anti-IgM)
Method: Human B Cells Proliferation Stimulate by Anti-IgM
Isolate PBMCs from Leukopac or from human fresh blood. Isolate human B cells by using Miltenyi protocol and B cell isolation kit II.-human B cells were Purified by using AutoMacs.column.
Activation of Human B Cells
Use 96 well Flat bottom plate, plate 50000/well purified B cells in B cell proliferation medium (DMEM+5% FCS, 10 mM Hepes, 50 μM 2-mercaptoethanol); 150 μL medium contain 250 ng/mL CD40L-LZ recombinant protein (Amgen) and 2 μg/mL anti-Human IgM antibody (Jackson ImmunoReseach Lab.#109-006-129), mixed with 50 μL B cell medium containing PI3K inhibitors and incubate 72 h at 37° C. incubator. After 72 h, pulse labeling B cells with 0.5-1 uCi/well ^3H thymidine for overnight ˜18 h, and harvest cell using TOM harvester.

[6] = target: T4, PI3KIII (Homo sapiens, UniProt Q8NEB9); experiment: Class III PI(3)P assay (U20S EGFP-2XFYVE cells); format: cell-based
T4 construct: host or cells: U2OS EGFP-2XFYVE cells
Method: (§3) GFP Assays for Detecting Inhibition of Class Ia and Class III PI3K
FYVE domains bind to PI(3)P. the majority is generated by constitutive action of PI3K Class III
Class III PI(3)P assay (U20S EGFP-2XFYVE Cells/GE Healthcare)
Wash cells with assay buffer. Treat with compounds in assay buffer 1 h. Fix and image.
Control for all 3 assays is […] Wortmannin:
PI(3)P depleted from endosomes

[7] = target: T5, PI3Kb (Homo sapiens, UniProt P42338); experiment: Forkhead translocation assay (MDA MB468 Forkhead-DiversaGFP cells); format: cell-based; design: endogenous in cells; host or cells: MDA MB468 (Forkhead-DiversaGFP) cells; details: first value of the cell; MDA468 forkhead; read-out: PI3KbMDA468 FH
Method: as §3
Forkhead (FKHRL1) is a substrate for AKT1. It is cytoplasmic when phosphorylated by AKT (survival/growth). Inhibition of AKT (stasis/apoptosis)-forkhead translocation to the nucleus
Forkhead Translocation Assay (MDA MB468 Forkhead-DiversaGFP Cells)
Treat cells with compound in growth medium 1 h. Fix and image.

[8] = target: T5, PI3Kb; experiment: In vitro enzyme assay, PI3K beta; format: biochemical; design: Full length p110 subunits of PI3k α, β and δ, N-terminally labeled with polyHis tag; polyHis (N); made in house; host or cells: Sf9 insect cells (baculovirus); details: read-out: P13K b IC50
Method: as §1, §2

[9] = target: p110δ (Homo sapiens, UniProt O00329); details: cited from earlier work
[10] = system: protein kinases; details: cited from earlier work
[11] = system: murine model of asthma; details: ovalbumin-induced airway inflammation; cited from earlier work

Sequence of p110δ (O00329 whole entry, species assumed): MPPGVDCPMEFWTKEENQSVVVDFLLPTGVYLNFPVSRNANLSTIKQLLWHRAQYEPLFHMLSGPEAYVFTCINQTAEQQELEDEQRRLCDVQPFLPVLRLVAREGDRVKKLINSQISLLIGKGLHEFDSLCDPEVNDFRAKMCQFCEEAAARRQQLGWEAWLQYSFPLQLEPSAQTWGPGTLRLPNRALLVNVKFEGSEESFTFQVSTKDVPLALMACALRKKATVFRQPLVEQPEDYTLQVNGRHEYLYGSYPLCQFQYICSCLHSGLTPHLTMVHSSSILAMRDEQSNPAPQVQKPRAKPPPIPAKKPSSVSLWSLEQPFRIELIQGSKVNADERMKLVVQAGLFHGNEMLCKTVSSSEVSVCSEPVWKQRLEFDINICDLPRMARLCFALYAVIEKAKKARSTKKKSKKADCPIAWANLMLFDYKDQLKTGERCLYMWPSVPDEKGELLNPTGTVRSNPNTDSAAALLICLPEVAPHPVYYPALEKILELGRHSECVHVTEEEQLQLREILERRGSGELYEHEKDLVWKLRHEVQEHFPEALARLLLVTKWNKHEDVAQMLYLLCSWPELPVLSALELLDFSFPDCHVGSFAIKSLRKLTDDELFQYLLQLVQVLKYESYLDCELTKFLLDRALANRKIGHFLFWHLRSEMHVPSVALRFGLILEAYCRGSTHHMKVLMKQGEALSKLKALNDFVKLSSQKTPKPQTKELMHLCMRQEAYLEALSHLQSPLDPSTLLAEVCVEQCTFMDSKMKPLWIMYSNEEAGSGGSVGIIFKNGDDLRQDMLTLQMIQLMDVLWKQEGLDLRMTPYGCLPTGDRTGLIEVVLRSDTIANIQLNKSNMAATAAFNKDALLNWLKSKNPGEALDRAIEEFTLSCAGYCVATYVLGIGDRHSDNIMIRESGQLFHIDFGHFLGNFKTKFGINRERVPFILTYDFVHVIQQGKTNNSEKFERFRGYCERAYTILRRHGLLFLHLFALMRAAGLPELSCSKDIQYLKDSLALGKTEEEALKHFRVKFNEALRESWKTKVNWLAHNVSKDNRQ
T3 sequence (P48736 114-1102): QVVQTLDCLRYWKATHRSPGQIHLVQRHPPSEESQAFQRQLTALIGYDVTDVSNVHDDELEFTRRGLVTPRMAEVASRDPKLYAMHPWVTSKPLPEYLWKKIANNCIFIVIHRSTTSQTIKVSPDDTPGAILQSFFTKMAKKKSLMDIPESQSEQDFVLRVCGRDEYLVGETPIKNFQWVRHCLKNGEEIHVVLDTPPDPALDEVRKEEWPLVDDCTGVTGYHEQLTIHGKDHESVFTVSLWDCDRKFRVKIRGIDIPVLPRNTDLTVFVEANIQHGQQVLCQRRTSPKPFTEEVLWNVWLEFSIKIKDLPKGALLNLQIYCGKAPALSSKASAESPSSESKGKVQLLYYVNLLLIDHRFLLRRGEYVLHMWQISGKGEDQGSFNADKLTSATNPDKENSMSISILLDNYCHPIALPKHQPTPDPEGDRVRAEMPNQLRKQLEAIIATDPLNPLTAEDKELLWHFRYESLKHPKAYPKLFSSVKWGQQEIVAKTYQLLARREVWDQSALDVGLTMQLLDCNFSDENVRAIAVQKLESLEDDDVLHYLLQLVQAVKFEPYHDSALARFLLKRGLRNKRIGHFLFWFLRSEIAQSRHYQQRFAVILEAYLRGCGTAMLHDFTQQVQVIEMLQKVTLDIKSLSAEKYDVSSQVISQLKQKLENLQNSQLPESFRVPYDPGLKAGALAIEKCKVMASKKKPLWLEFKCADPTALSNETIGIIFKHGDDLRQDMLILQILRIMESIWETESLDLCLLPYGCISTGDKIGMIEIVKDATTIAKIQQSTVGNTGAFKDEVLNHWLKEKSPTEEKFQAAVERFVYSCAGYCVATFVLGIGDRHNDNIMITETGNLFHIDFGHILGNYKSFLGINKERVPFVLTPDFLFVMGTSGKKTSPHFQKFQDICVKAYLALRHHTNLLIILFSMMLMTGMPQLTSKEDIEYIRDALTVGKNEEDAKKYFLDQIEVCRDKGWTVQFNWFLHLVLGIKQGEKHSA
T2 sequence (P42336 whole entry): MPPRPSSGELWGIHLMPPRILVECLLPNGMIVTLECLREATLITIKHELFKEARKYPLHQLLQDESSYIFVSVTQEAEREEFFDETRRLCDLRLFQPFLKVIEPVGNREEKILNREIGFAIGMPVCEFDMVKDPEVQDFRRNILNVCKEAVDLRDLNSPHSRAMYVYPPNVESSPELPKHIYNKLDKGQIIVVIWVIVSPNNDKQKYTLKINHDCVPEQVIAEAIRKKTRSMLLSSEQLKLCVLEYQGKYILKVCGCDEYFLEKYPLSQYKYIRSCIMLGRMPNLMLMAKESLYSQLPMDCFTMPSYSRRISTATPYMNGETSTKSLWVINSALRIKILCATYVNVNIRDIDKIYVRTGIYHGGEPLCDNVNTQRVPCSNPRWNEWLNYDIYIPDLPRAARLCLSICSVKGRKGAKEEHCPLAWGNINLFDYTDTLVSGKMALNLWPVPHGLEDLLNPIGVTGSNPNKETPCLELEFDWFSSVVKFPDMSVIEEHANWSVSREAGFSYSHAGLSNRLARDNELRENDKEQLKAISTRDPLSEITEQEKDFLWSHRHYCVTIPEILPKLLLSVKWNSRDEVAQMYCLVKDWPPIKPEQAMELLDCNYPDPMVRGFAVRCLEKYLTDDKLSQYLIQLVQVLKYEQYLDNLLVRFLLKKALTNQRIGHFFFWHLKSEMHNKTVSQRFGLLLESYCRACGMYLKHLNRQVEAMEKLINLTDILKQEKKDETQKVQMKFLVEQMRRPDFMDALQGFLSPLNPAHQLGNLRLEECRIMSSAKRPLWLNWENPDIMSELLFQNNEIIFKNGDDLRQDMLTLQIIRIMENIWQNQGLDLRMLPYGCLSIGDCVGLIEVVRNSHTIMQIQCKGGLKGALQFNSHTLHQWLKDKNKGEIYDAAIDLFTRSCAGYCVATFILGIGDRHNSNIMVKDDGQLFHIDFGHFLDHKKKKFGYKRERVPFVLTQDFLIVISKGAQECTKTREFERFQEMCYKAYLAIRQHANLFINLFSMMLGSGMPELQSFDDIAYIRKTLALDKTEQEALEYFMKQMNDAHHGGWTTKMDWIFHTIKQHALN
T2 sequence (P27986 whole entry partner): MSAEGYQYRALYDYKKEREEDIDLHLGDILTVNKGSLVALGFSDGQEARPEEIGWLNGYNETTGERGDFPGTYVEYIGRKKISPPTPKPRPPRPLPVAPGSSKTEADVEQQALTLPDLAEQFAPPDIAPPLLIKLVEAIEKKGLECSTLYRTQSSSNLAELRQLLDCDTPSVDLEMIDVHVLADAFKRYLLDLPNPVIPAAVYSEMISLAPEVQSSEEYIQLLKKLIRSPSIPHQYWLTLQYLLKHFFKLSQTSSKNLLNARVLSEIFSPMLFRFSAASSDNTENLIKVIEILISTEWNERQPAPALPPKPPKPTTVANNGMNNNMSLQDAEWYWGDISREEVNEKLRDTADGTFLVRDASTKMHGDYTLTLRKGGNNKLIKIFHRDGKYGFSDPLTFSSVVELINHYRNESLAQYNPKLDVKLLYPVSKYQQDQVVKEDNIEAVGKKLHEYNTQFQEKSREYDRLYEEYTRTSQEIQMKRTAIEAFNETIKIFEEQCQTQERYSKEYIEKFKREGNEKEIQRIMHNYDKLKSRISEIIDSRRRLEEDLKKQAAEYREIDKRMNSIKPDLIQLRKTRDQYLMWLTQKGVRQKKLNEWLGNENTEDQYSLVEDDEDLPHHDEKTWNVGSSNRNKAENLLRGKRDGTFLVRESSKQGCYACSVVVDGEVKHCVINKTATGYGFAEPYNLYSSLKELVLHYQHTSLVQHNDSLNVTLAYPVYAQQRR
T5 sequence (P42338 whole entry): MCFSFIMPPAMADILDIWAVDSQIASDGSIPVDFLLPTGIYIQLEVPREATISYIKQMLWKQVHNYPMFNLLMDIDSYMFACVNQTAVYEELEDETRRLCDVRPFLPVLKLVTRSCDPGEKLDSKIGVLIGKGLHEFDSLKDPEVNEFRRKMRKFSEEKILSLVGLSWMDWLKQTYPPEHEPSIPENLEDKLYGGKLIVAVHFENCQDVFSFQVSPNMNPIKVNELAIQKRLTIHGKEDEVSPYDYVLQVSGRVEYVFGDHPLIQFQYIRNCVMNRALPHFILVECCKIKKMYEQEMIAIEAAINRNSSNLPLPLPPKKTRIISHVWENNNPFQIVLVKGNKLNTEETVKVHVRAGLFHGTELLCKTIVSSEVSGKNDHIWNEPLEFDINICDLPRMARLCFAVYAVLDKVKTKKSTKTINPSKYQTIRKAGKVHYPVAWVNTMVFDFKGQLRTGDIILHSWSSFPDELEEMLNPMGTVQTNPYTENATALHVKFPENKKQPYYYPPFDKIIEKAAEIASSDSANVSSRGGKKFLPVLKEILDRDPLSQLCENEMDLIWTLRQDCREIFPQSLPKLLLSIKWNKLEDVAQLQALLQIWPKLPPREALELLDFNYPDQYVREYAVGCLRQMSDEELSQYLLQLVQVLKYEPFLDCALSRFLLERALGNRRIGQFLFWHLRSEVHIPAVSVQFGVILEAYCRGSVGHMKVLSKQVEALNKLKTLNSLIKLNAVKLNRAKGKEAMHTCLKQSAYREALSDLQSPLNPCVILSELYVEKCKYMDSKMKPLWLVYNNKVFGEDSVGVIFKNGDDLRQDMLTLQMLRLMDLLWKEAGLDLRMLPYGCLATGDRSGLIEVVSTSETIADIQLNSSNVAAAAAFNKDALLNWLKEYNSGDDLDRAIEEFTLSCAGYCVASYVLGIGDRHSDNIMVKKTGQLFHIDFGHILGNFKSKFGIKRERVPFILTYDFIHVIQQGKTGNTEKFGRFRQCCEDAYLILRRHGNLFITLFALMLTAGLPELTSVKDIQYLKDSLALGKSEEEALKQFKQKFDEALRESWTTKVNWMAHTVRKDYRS
T5 sequence (P27986 whole entry partner): as the sequence (P27986 whole entry partner) above
T1 sequence (O00329 whole entry): as the sequence (O00329 whole entry, species assumed) above
T1 sequence (P27986 whole entry partner): as the sequence (P27986 whole entry partner) above

SMILES: C[C@H](Nc1ncnc(N)c1C#N)c1nc2ccc(F)cc2nc1-c1ccccn1 [Example 7, (S)-4-Amino-6-((1-(6-fluoro-3-(pyridin-2-yl)quinoxalin-2-yl)ethyl)amino)-pyrimidine-5-carbonitrile]
- IC50 [1]: 11.7 nM
- PI3K: b/d [2]: 213
- PI3Ka IC50 [3]: 12700 nM
- PI3K: a/d ([3]; ratio of alpha to delta IC50): 1085
- IC50 [4]: 3900 nM
- PI3K: g/d ([4]; ratio of gamma to delta IC50): 333
- IC50 [5]: 10.4 nM
- IC50 [6]: > 10000 nM
- IC50 [7]: > 10000 nM
- IC50 [8]: 2490 nM

SMILES: Cc1ccccc1-n1c(Cn2cnc3c(N)ncnc32)nc2cccc(C)c2c1=O [IC87114]
- inhibits p110δ [9]: high nanomolar range (triple digit)
- selectivity against p110α ([9]; delta versus p110α): greater than 100 fold
- selective against p110β ([9]; delta versus p110β): 52 fold
- selectivity against p110γ ([9]; delta versus p110γ): approx. 8 fold
- activity against any protein kinases tested [10]: no activity
- inflammation and disease in a murine model of asthma [11]: significantly ameliorate inflammation and disease
